Literature values, collected in patent US20240335409A1, “SYSTEMS AND METHODS FOR DELIVERY OF PHENYLALANINE AND LACTATE” (Transdermal Biotechnology, Inc., priority 2022, published 2024).

water solubility: > 2000 µM
Structure (SMILES): C[C@H](O)C(=O)N[C@@H](Cc1ccccc1)C(=O)O [Lac-Phe, N-lactoyl-phenylalanine]
effect on food intake and obesity (mice): effectively reduce food intake and obesity
